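Interpolation was linear, between the two tested concentrations surrounding the appropriate level; five concentrations were tested over 48 hours in 96-well plates. TGI marks complete inhibition of growth.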
System: 786-0 renal
Assay: NCI-60 cell line screen, 48 h

`CC12CCC3c4ccc(O)cc4CCC3C1C/C(=N\O)C2O` (centres undefined) and `O=c1[nH]c2ccc(O)cc2o1` cannot be ordered by TGI: greater than 100 µM for the first, greater than 100 µM for the second.

Compared with `CC(=O)N(C)CCc1c[nH]c2ccccc12`, `CN(C)CCSc1cc(-c2ccccc2)c2ccccc2n1` is lower in TGI: greater than 100 µM for the first, 25.2 µM for the second.

`O=C(NNC(=O)c1ccccc1O)c1cccc(Br)c1` and `CN1C(=O)C2CCCC(=O)N2c2cccnc21` (centres undefined) cannot be ordered by TGI: greater than 100 µM for the first, greater than 100 µM for the second.

`CCOc1nnnc2nc[nH]c12` and `Cc1ncc([N+](=O)[O-])n1CCNCCCCn1ccnc1[N+](=O)[O-]` cannot be ordered by TGI: greater than 100 µM for the first, greater than 100 µM for the second.

System: A498 renal
Assay: NCI-60 cell line screen, 48 h

`CC12CCC3c4ccc(O)cc4CCC3C1C/C(=N\O)C2O` (centres undefined) and `O=c1[nH]c2ccc(O)cc2o1` cannot be ordered by TGI: greater than 100 µM for the first, greater than 100 µM for the second.

Going from `O=C(NNC(=O)c1ccccc1O)c1cccc(Br)c1` to `CN(C)CCSc1cc(-c2ccccc2)c2ccccc2n1`, the TGI falls from greater than 100 µM to 33 µM.

`CCOc1nnnc2nc[nH]c12` and `Cc1ncc([N+](=O)[O-])n1CCNCCCCn1ccnc1[N+](=O)[O-]` cannot be ordered by TGI: greater than 100 µM for the first, greater than 100 µM for the second.

System: A549 NSCLC
Assay: NCI-60 cell line screen, 48 h

`CC12CCC3c4ccc(O)cc4CCC3C1C/C(=N\O)C2O` (centres undefined) and `O=c1[nH]c2ccc(O)cc2o1` cannot be ordered by TGI: greater than 100 µM for the first, greater than 100 µM for the second.

Compared with `CC(=O)N(C)CCc1c[nH]c2ccccc12`, `CN(C)CCSc1cc(-c2ccccc2)c2ccccc2n1` is lower in TGI: greater than 100 µM for the first, 28.5 µM for the second.

`O=C(NNC(=O)c1ccccc1O)c1cccc(Br)c1` and `CN1C(=O)C2CCCC(=O)N2c2cccnc21` (centres undefined) cannot be ordered by TGI: greater than 100 µM for the first, greater than 100 µM for the second.

`CCOc1nnnc2nc[nH]c12` and `Cc1ncc([N+](=O)[O-])n1CCNCCCCn1ccnc1[N+](=O)[O-]` cannot be ordered by TGI: greater than 100 µM for the first, greater than 100 µM for the second.

System: ACHN renal
Assay: NCI-60 cell line screen, 48 h

`CC12CCC3c4ccc(O)cc4CCC3C1C/C(=N\O)C2O` (centres undefined) and `O=c1[nH]c2ccc(O)cc2o1` cannot be ordered by TGI: greater than 100 µM for the first, greater than 100 µM for the second.

Compared with `CC(=O)N(C)CCc1c[nH]c2ccccc12`, `CN(C)CCSc1cc(-c2ccccc2)c2ccccc2n1` is lower in TGI: greater than 100 µM for the first, 26.7 µM for the second.

`O=C(NNC(=O)c1ccccc1O)c1cccc(Br)c1` and `CN1C(=O)C2CCCC(=O)N2c2cccnc21` (centres undefined) cannot be ordered by TGI: greater than 100 µM for the first, greater than 100 µM for the second.

For `Cc1ncc([N+](=O)[O-])n1CCNCCCCn1ccnc1[N+](=O)[O-]`, the TGI was greater than 100 µM.

System: BT-549 breast
Assay: NCI-60 cell line screen, 48 h

`CC12CCC3c4ccc(O)cc4CCC3C1C/C(=N\O)C2O` (centres undefined) and `O=c1[nH]c2ccc(O)cc2o1` cannot be ordered by TGI: greater than 100 µM for the first, greater than 100 µM for the second.

Going from `CC(=O)N(C)CCc1c[nH]c2ccccc12` to `CN(C)CCSc1cc(-c2ccccc2)c2ccccc2n1`, the TGI falls from greater than 100 µM to 24.8 µM.

`O=C(NNC(=O)c1ccccc1O)c1cccc(Br)c1` and `CN1C(=O)C2CCCC(=O)N2c2cccnc21` (centres undefined) cannot be ordered by TGI: greater than 100 µM for the first, greater than 100 µM for the second.

`CCOc1nnnc2nc[nH]c12` and `Cc1ncc([N+](=O)[O-])n1CCNCCCCn1ccnc1[N+](=O)[O-]` cannot be ordered by TGI: greater than 100 µM for the first, greater than 100 µM for the second.

System: CAKI-1 renal
Assay: NCI-60 cell line screen, 48 h

`CC12CCC3c4ccc(O)cc4CCC3C1C/C(=N\O)C2O` (centres undefined) and `O=c1[nH]c2ccc(O)cc2o1` cannot be ordered by TGI: greater than 100 µM for the first, greater than 100 µM for the second.

First: CC(=O)N(C)CCc1c[nH]c2ccccc12
Second: CN(C)CCSc1cc(-c2ccccc2)c2ccccc2n1
The TGI of the first is higher: greater than 100 µM for the first, 30.9 µM for the second.

`O=C(NNC(=O)c1ccccc1O)c1cccc(Br)c1` and `CN1C(=O)C2CCCC(=O)N2c2cccnc21` (centres undefined) cannot be ordered by TGI: greater than 100 µM for the first, greater than 100 µM for the second.

`CCOc1nnnc2nc[nH]c12` and `Cc1ncc([N+](=O)[O-])n1CCNCCCCn1ccnc1[N+](=O)[O-]` cannot be ordered by TGI: greater than 100 µM for the first, greater than 100 µM for the second.

System: CCRF-CEM leukemia
Assay: NCI-60 cell line screen, 48 h

`CC12CCC3c4ccc(O)cc4CCC3C1C/C(=N\O)C2O` (centres undefined) and `O=c1[nH]c2ccc(O)cc2o1` cannot be ordered by TGI: greater than 100 µM for the first, greater than 100 µM for the second.

Going from `CC(=O)N(C)CCc1c[nH]c2ccccc12` to `CN(C)CCSc1cc(-c2ccccc2)c2ccccc2n1`, the TGI falls from greater than 100 µM to 33.3 µM.

`CN1C(=O)C2CCCC(=O)N2c2cccnc21` (centres undefined) and `Cc1ncc([N+](=O)[O-])n1CCNCCCCn1ccnc1[N+](=O)[O-]` cannot be ordered by TGI: greater than 100 µM for the first, greater than 100 µM for the second.

System: COLO 205 colon
Assay: NCI-60 cell line screen, 48 h

`CC12CCC3c4ccc(O)cc4CCC3C1C/C(=N\O)C2O` (centres undefined) and `O=c1[nH]c2ccc(O)cc2o1` cannot be ordered by TGI: greater than 100 µM for the first, greater than 100 µM for the second.

Going from `CC(=O)N(C)CCc1c[nH]c2ccccc12` to `CN(C)CCSc1cc(-c2ccccc2)c2ccccc2n1`, the TGI falls from greater than 100 µM to 4.85 µM.

`O=C(NNC(=O)c1ccccc1O)c1cccc(Br)c1` and `CN1C(=O)C2CCCC(=O)N2c2cccnc21` (centres undefined) cannot be ordered by TGI: greater than 100 µM for the first, greater than 100 µM for the second.

`CCOc1nnnc2nc[nH]c12` and `Cc1ncc([N+](=O)[O-])n1CCNCCCCn1ccnc1[N+](=O)[O-]` cannot be ordered by TGI: greater than 100 µM for the first, greater than 100 µM for the second.

System: DU-145 prostate
Assay: NCI-60 cell line screen, 48 h

`CC12CCC3c4ccc(O)cc4CCC3C1C/C(=N\O)C2O` (centres undefined) and `O=c1[nH]c2ccc(O)cc2o1` cannot be ordered by TGI: greater than 100 µM for the first, greater than 100 µM for the second.

First: CC(=O)N(C)CCc1c[nH]c2ccccc12
Second: CN(C)CCSc1cc(-c2ccccc2)c2ccccc2n1
The TGI of the first is higher: greater than 100 µM for the first, 28.7 µM for the second.

`O=C(NNC(=O)c1ccccc1O)c1cccc(Br)c1` and `CN1C(=O)C2CCCC(=O)N2c2cccnc21` (centres undefined) cannot be ordered by TGI: greater than 100 µM for the first, greater than 100 µM for the second.

`CCOc1nnnc2nc[nH]c12` and `Cc1ncc([N+](=O)[O-])n1CCNCCCCn1ccnc1[N+](=O)[O-]` cannot be ordered by TGI: greater than 100 µM for the first, greater than 100 µM for the second.

System: EKVX NSCLC
Assay: NCI-60 cell line screen, 48 h

`CC12CCC3c4ccc(O)cc4CCC3C1C/C(=N\O)C2O` (centres undefined) and `O=c1[nH]c2ccc(O)cc2o1` cannot be ordered by TGI: greater than 100 µM for the first, greater than 100 µM for the second.

Compared with `CC(=O)N(C)CCc1c[nH]c2ccccc12`, `CN(C)CCSc1cc(-c2ccccc2)c2ccccc2n1` is lower in TGI: greater than 100 µM for the first, 30.3 µM for the second.

`O=C(NNC(=O)c1ccccc1O)c1cccc(Br)c1` and `CN1C(=O)C2CCCC(=O)N2c2cccnc21` (centres undefined) cannot be ordered by TGI: greater than 100 µM for the first, greater than 100 µM for the second.

`CCOc1nnnc2nc[nH]c12` and `Cc1ncc([N+](=O)[O-])n1CCNCCCCn1ccnc1[N+](=O)[O-]` cannot be ordered by TGI: greater than 100 µM for the first, greater than 100 µM for the second.

System: HCC-2998 colon
Assay: NCI-60 cell line screen, 48 h

`O=c1[nH]c2ccc(O)cc2o1` and `O=C(NNC(=O)c1ccccc1O)c1cccc(Br)c1` cannot be ordered by TGI: greater than 100 µM for the first, greater than 100 µM for the second.

`CCOc1nnnc2nc[nH]c12` and `CN1C(=O)C2CCCC(=O)N2c2cccnc21` (centres undefined) cannot be ordered by TGI: greater than 100 µM for the first, greater than 100 µM for the second.

System: HCT-116 colon
Assay: NCI-60 cell line screen, 48 h

`CC12CCC3c4ccc(O)cc4CCC3C1C/C(=N\O)C2O` (centres undefined) and `O=c1[nH]c2ccc(O)cc2o1` cannot be ordered by TGI: greater than 100 µM for the first, greater than 100 µM for the second.

Compared with `CC(=O)N(C)CCc1c[nH]c2ccccc12`, `CN(C)CCSc1cc(-c2ccccc2)c2ccccc2n1` is lower in TGI: greater than 100 µM for the first, 20.4 µM for the second.

`O=C(NNC(=O)c1ccccc1O)c1cccc(Br)c1` and `CN1C(=O)C2CCCC(=O)N2c2cccnc21` (centres undefined) cannot be ordered by TGI: greater than 100 µM for the first, greater than 100 µM for the second.

`CCOc1nnnc2nc[nH]c12` and `Cc1ncc([N+](=O)[O-])n1CCNCCCCn1ccnc1[N+](=O)[O-]` cannot be ordered by TGI: greater than 100 µM for the first, greater than 100 µM for the second.

System: HCT-15 colon
Assay: NCI-60 cell line screen, 48 h

`CC12CCC3c4ccc(O)cc4CCC3C1C/C(=N\O)C2O` (centres undefined) and `O=c1[nH]c2ccc(O)cc2o1` cannot be ordered by TGI: greater than 100 µM for the first, greater than 100 µM for the second.

Going from `CC(=O)N(C)CCc1c[nH]c2ccccc12` to `CN(C)CCSc1cc(-c2ccccc2)c2ccccc2n1`, the TGI falls from greater than 100 µM to 14.6 µM.

`O=C(NNC(=O)c1ccccc1O)c1cccc(Br)c1` and `CN1C(=O)C2CCCC(=O)N2c2cccnc21` (centres undefined) cannot be ordered by TGI: greater than 100 µM for the first, greater than 100 µM for the second.

`CCOc1nnnc2nc[nH]c12` and `Cc1ncc([N+](=O)[O-])n1CCNCCCCn1ccnc1[N+](=O)[O-]` cannot be ordered by TGI: greater than 100 µM for the first, greater than 100 µM for the second.

System: HL-60(TB) leukemia
Assay: NCI-60 cell line screen, 48 h

`CC12CCC3c4ccc(O)cc4CCC3C1C/C(=N\O)C2O` (centres undefined) and `O=c1[nH]c2ccc(O)cc2o1` cannot be ordered by TGI: greater than 100 µM for the first, greater than 100 µM for the second.

`CC(=O)N(C)CCc1c[nH]c2ccccc12` and `CN(C)CCSc1cc(-c2ccccc2)c2ccccc2n1` cannot be ordered by TGI: greater than 100 µM for the first, greater than 100 µM for the second.

`O=C(NNC(=O)c1ccccc1O)c1cccc(Br)c1` and `CN1C(=O)C2CCCC(=O)N2c2cccnc21` (centres undefined) cannot be ordered by TGI: greater than 100 µM for the first, greater than 100 µM for the second.

`CCOc1nnnc2nc[nH]c12` and `Cc1ncc([N+](=O)[O-])n1CCNCCCCn1ccnc1[N+](=O)[O-]` cannot be ordered by TGI: greater than 100 µM for the first, greater than 100 µM for the second.

System: HOP-62 NSCLC
Assay: NCI-60 cell line screen, 48 h

`CC12CCC3c4ccc(O)cc4CCC3C1C/C(=N\O)C2O` (centres undefined) and `O=c1[nH]c2ccc(O)cc2o1` cannot be ordered by TGI: greater than 100 µM for the first, greater than 100 µM for the second.

First: CC(=O)N(C)CCc1c[nH]c2ccccc12
Second: CN(C)CCSc1cc(-c2ccccc2)c2ccccc2n1
The TGI of the first is higher: greater than 100 µM for the first, 22.9 µM for the second.

`O=C(NNC(=O)c1ccccc1O)c1cccc(Br)c1` and `CCOc1nnnc2nc[nH]c12` cannot be ordered by TGI: greater than 100 µM for the first, greater than 100 µM for the second.

From PubChem BioAssay (NCI)
